Data on 26 compounds can be found in paper PMC9090388, “Design, synthesis, biological evaluation and QSAR analysis of novel N-substituted benzimidazole derived carboxamides” (Journal of Enzyme Inhibition and Medicinal Chemistry, 2022).

Values joined by “and” are separate entries in the source; they are usually repeats but may differ in a detail not shown here. Equal entries are not always repeated.

In general, IC50 refers to the midpoint of a concentration-inhibition curve.

Test [1] is described as follows: Ferric reducing/antioxidant power (FRAP assay). It is filed as biochemical. The note with it: triplicate; – = not active in the FRAP assay. On the procedure:
The FRAP method was carried out according to previously described procedures with some modifications to be compatible with an assay on a 96-well microplate. All results were expressed as Fe^2+ equivalents (Fe^2+ µmol).

Test [2] is described as follows: DPPH free radical scavenging (reducing activity of the stable radical DPPH). In kind it is biochemical. Conditions: DPPH 50 µM in absolute ethanol; – = did not show any DPPH activity. On the procedure: The reducing activity of investigated systems was achieved by the DPPH method according to previously described procedures with modifications to assure the use in a 96-well microplate. Briefly, equal volumes of various concentrations of tested molecules (dissolved in DMSO) were added to the solution of DPPH (final concentration 50 µM in absolute ethanol). Ethanol and DMSO were used as control solutions in line with earlier reports.[27]

Test [3] deals with HCT116 (colon carcinoma). Put plainly: Antiproliferative activity in vitro, MTT, 72 h. In kind it is cell-based. The note with it: Homo sapiens, HCT-116, 72 h, concentration that causes 50% growth inhibition. As for the experimental part: (§1) The experiments were performed on four human cell lines, including HCT 116 (colon carcinoma), H 460 (lung carcinoma), MCF-7 (breast carcinoma) and HEK 293 (human embryonic kidney cells), in line with previously published experimental procedures[10]^,[25]. Briefly, the cells were grown in DMEM medium with the addition of 10% foetal bovine serum (FBS), 2 mM L-glutamine, 100 U/mL penicillin and 100 µg/mL streptomycin, and cultured as monolayers at 37 °C in a humidified atmosphere with 5% CO2. Cells were seeded at 2 × 10^3 cells/well in a standard 96-well microtiter plates and left to attach for 24 h. Next day, a test compound was added in five serial 10-fold dilutions. The rate of cell growth was evaluated after 72 h of incubation with MTT reagent. The obtained results are expressed as IC50 values, calculated from the concentration-response curves using linear regression analysis by fitting the test concentrations that give PG values above and below the reference value (i.e. 50%). Each test was performed in quadruplicate in at least two individual experiments.

In test [4] the test system is MCF-7 (breast carcinoma). Put plainly: Antiproliferative activity in vitro, MTT, 72 h. In kind it is cell-based. The note with it: Homo sapiens, MCF7, concentration that causes 50% growth inhibition. On the procedure:
as §1

The subject of test [5] is H 460 (lung carcinoma). Put plainly: Antiproliferative activity in vitro, MTT, 72 h. In kind it is cell-based, human. The note with it: for IC50: Homo sapiens, NCI-H460, 72 h, concentration that causes 50% growth inhibition, 72 h, MTT; for selectivity of antiproliferative activity among cell lines: H 460 versus HCT116, MCF-7, HEK 293. As for the experimental part:
as §1

For test [6], the system named is HEK 293 (human embryonic kidney cells). The experiment in a line: Antiproliferative/cytotoxic activity in vitro on non-tumour cells, MTT, 72 h. The note with it: Homo sapiens, HEK293; non-tumour cell line; concentration that causes 50% growth inhibition; 72 h, MTT. In kind it is cell-based. As for the experimental part:
as §1

Compound `Cc1cc(C(C)(C)C)c(O)c(C(C)(C)C)c1` [BHT, butylated hydroxytoluene, reference compound] showed an FRAP in test [1] of 679.15 mmolFe^2+/mmolC.

In turn, `COc1ccccc1C(=O)Nc1nc2ccccc2[nH]1` [Compound 25, N-(1H-Benzo[d]imidazol-2-yl)-2-methoxybenzamide] showed a half-inhibitory concentration (IC50) in test [2] of 75700 ± 6080 µM.

`COc1ccc(C(=O)Nc2nc3ccccc3[nH]2)c(OC)c1` [Compound 26, N-(1H-Benzo[d]imidazol-2-yl)-2,4-dimethoxybenzamide] came in with a 50% inhibitory concentration (IC50) in test [2] of 41700 ± 1510 µM. In test [1], this compound came in with an FRAP of 166.61 ± 9.51 mmolFe^2+/mmolC.

With `COc1cc(C(=O)Nc2nc3ccccc3[nH]2)cc(OC)c1OC` [Compound 27, N-(1H-Benzo[d]imidazol-2-yl)-3,4,5-trimethoxybenzamide], the IC50 in test [2] came out at 6820 ± 410 µM; in test [3], 23.1 ± 15 µM; in test [4], 32.8 ± 15.6 µM; in test [5] it was 17.6 ± 6.7 µM; in test [6] it was 23.6 ± 4.4 µM. Besides, in test [1], the FRAP is recorded as 5.59 ± 0.62 mmolFe^2+/mmolC.

As to `Cn1c(NC(=O)c2ccccc2)nc2ccccc21` [Compound 28, N-(1-Methyl-1H-benzo[d]imidazol-2-yl)benzamide], the concentration for half-maximal inhibition (IC50) is ~3780 µM and 3780 µM in test [2]; 18.7 ± 5.1 µM in test [3]; 11.9 ± 7.5 µM in test [4]; 10.7 ± 2.3 µM in test [5]; 29.5 ± 12.5 µM in test [6]. The FRAP in test [1] is 538.81 mmolFe^2+/mmolC and 358.81 ± 4.83 mmolFe^2+/mmolC.

In the case of `COc1ccccc1C(=O)Nc1nc2ccccc2n1C` [Compound 29, 2-Methoxy-N-(1-methyl-1H-benzo[d]imidazol-2-yl)benzamide], in test [2], half-maximal inhibition (IC50) required 6050 ± 1030 µM. Besides, the FRAP in test [1] is on record as 110.16 ± 1.44 mmolFe^2+/mmolC.

In turn, `COc1ccc(C(=O)Nc2nc3ccccc3n2C)c(OC)c1` [Compound 30, 2,4-Dimethoxy-N-(1-methyl-1H-benzo[d]imidazol-2-il)benzamide] returned an IC50 in test [2] of 49600 ± 18400 µM.

As for `COc1cc(C(=O)Nc2nc3ccccc3n2C)cc(OC)c1OC` [Compound 31, 3,4,5-Trimethoxy-N-(1-methyl-1H-benzo[d]imidazol-2-yl)benzamide], the half-inhibitory concentration (IC50) in test [2] came to 6040 ± 290 µM; in test [3], 18.1 ± 1.4 µM; in test [4], 23.8 ± 12.4 µM; in test [5] it was 17.7 ± 0.8 µM; in test [6], 21.7 ± 9.4 µM. This compound registered an FRAP in test [1] of 124.28 ± 1.23 mmolFe^2+/mmolC.

Turning to `Cn1c(NC(=O)c2ccccc2)nc2ccc(C#N)cc21` [Compound 32, N-(6-Cyano-1-methyl-1H-benzo[d]imidazol-2-yl)benzamide], the FRAP in test [1] is listed as 160.27 ± 16.35 mmolFe^2+/mmolC.

For the compound `COc1cc(C(=O)Nc2nc3ccc(C#N)cc3n2C)cc(OC)c1OC` [Compound 35, N-(6-Cyano-1-methyl-1H-benzo[d]imidazol-2-yl)-3,4,5-trimethoxybenzamide], the FRAP in test [1] worked out at 338.50 ± 21.56 mmolFe^2+/mmolC. Also, the IC50 in test [3] was 5.2 ± 4.2 µM; in test [4], 5.5 ± 3.2 µM; in test [5], 3.9 ± 0.9 µM; in test [6], 12.3 ± 1.5 µM.

As to `CC(C)Cn1c(NC(=O)c2ccccc2)nc2ccccc21` [Compound 36, N-(1-Isobutyl-1H-benzo[d]imidazol-2-yl)benzamide], the IC50 in test [2] came to 4510 ± 20 µM; in test [3], 3.8 ± 0.9 µM; in test [4] it was 2.7 ± 1.9 µM; in test [5] it was 5.1 ± 2.6 µM; in test [6] it was 5.9 ± 2.4 µM. The same compound registered an FRAP in test [1] of 179.70 ± 23.42 mmolFe^2+/mmolC.

In test [2], `COc1ccccc1C(=O)Nc1nc2ccccc2n1CC(C)C` [Compound 37, N-(1-Isobutyl-1H-benzo[d]imidazol-2-yl)-2-methoxybenzamide] gave an IC50 of 10550 ± 30 µM.

For `COc1ccc(C(=O)Nc2nc3ccccc3n2CC(C)C)c(OC)c1` [Compound 38, N-(1-Isobutyl-1H-benzo[d]imidazol-2-yl)-2,4-dimethoxybenzamide], 26580 ± 20 µM corresponded to half-maximal inhibition in test [2] (IC50). The FRAP in test [1] is 5.80 ± 0.15 mmolFe^2+/mmolC.

With `COc1cc(C(=O)Nc2nc3ccccc3n2CC(C)C)cc(OC)c1OC` [Compound 39, N-(1-Isobutyl-1H-benzo[d]imidazol-2-yl)-3,4,5-trimethoxybenzamide], the concentration for half-maximal inhibition (IC50) in test [2] was found to be 4920 ± 130 µM; in test [3], 3.1 ± 0.7 µM; in test [4], 4.6 ± 1.4 µM; in test [5], 1.7 ± 0.1 µM; in test [6], 2 ± 0.9 µM. This compound gave an FRAP in test [1] of 217.20 ± 3.69 mmolFe^2+/mmolC.

With `COc1ccccc1C(=O)Nc1nc2ccc(C#N)cc2n1CC(C)C` [Compound 41, N-(6-Cyano-1-isobutyl-1H-benzo[d]imidazol-2-yl)-2-methoxybenzamide], in test [2], the half-inhibitory concentration (IC50) was found to be 4580 ± 150 µM. For the same compound, in test [1], the FRAP stood at 154.30 ± 5.67 mmolFe^2+/mmolC.

For the compound `COc1ccc(C(=O)Nc2nc3ccc(C#N)cc3n2CC(C)C)c(OC)c1` [Compound 42, N-(6-Cyano-1-isobutyl-1H-benzo[d]imidazol-2-yl)-2,4-dimethoxybenzamide], in test [2], the IC50 is 5350 ± 70 µM.

For the compound `COc1cc(C(=O)Nc2nc3ccc(C#N)cc3n2CC(C)C)cc(OC)c1OC` [Compound 43, N-(6-Cyano-1-isobutyl-1H-benzo[d]imidazol-2-yl)-3,4,5-trimethoxybenzamide], the FRAP in test [1] is listed as 243.30 ± 3.39 mmolFe^2+/mmolC. For the same compound, the values for the 50% inhibitory concentration (IC50) in test [3], in test [4] and in test [6] were around 0.6 µM, 3.1 ± 1.7 µM and 4.7 ± 1 µM, respectively.

Compound `O=C(Nc1nc2ccccc2n1-c1ccccc1)c1ccccc1` [Compound 44, N-(1-Phenyl-1H-benzo[d]imidazol-2-yl)benzamide] had an FRAP in test [1] of 184.70 ± 3.22 mmolFe^2+/mmolC.

Regarding `COc1ccccc1C(=O)Nc1nc2ccccc2n1-c1ccccc1` [Compound 45, 2-Methoxy-N-(1-phenyl-1H-benzo[d]imidazol-2-yl)benzamide], in test [2], it took 8710 ± 340 µM to reach half-maximal inhibition (IC50).

Regarding `COc1ccc(C(=O)Nc2nc3ccccc3n2-c2ccccc2)c(OC)c1` [Compound 46, 2,4-Dimethoxy-N-(1-phenyl-1H-benzo[d]imidazol-2-yl)benzamide], the IC50 in test [2] came to 8480 ± 710 µM.

For the compound `COc1cc(C(=O)Nc2nc3ccccc3n2-c2ccccc2)cc(OC)c1OC` [Compound 47, 3,4,5-Trimethoxy-N-(1-pheny-1H-benzo[d]imidazol-2-yl)benzamide], the FRAP in test [1] came to 236.90 ± 1.50 mmolFe^2+/mmolC. In addition, the half-maximal inhibitory concentration (IC50) is 1.6 ± 0.9 µM in test [3], 2.9 ± 1.3 µM in test [4], 0.8 ± 1.5 µM in test [5] and 5.3 ± 2.4 µM in test [6]. Further, in test [5], the “selectivity of antiproliferative activity among cell lines” value was “selective activity against H 460”.

With `N#Cc1ccc2nc(NC(=O)c3ccccc3)n(-c3ccccc3)c2c1` [Compound 48, N-(6-Cyano-1-phenyl-1H-benzo[d]imidazol-2-yl)benzamide], the FRAP in test [1] worked out at 138.98 ± 32.68 mmolFe^2+/mmolC.

In test [2], `COc1ccccc1C(=O)Nc1nc2ccc(C#N)cc2n1-c1ccccc1` [Compound 49, N-(6-Cyano-1-phenyl-1H-benzo[d]imidazol-2-yl)-2-methoxybenzamide] had an IC50 of 29900 ± 1300 µM. The compound further gave an FRAP in test [1] of 221.31 ± 27.39 mmolFe^2+/mmolC.

`COc1ccc(C(=O)Nc2nc3ccc(C#N)cc3n2-c2ccccc2)c(OC)c1` [Compound 50, N-(6-Cyano-1-phenyl-1H-benzo[d]imidazol-2-yl)-2,4-dimethoxybenzamide] had an FRAP in test [1] of 506.70 ± 7.46 mmolFe^2+/mmolC.

In turn, `COc1cc(C(=O)Nc2nc3ccc(C#N)cc3n2-c2ccccc2)cc(OC)c1OC` [Compound 51, N-(6-Cyano-1-phenyl-1H-benzo[d]imidazol-2-yl)-3,4,5-trimethoxybenzamide] yielded an FRAP in test [1] of 132.56 ± 18.06 mmolFe^2+/mmolC. For the same compound, the half-maximal inhibitory concentration (IC50) in test [3] was 30.1 ± 13.2 µM; in test [4], 29.4 ± 19.4 µM; in test [5], 4.53 ± 7.3 µM; in test [6] it was 61.1 ± 35.7 µM. Also, the “selectivity of antiproliferative activity among cell lines” value in test [5] is listed as “selective activity against H 460”.

Turning to `COc1cc([C@@H]2c3cc4c(cc3[C@@H](O[C@@H]3O[C@@H]5CO[C@@H](C)O[C@H]5[C@H](O)[C@H]3O)[C@H]3COC(=O)[C@H]23)OCO4)cc(OC)c1O` [Etoposide, reference compound], the half-inhibitory concentration (IC50) in test [3] was 5 ± 2 µM; in test [4], 1 ± 0.7 µM; in test [5] it was 0.1 ± 0.04 µM.
